Experimental data: PubChem BioAssay (NCI)
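Test compounds were applied to cells in 96-well plates for 48 hours at 5 doses. The concentration for 50% growth inhibition is given as GI50. The concentration for full growth arrest is given as TGI.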

Experiments:
Assay in all cases: inhibition of tumour cell growth, NCI panel, 48 h
[1] = test system: SR leukemia
[2] = test system: 786-0 renal
[3] = test system: DU-145 prostate
[4] = test system: ACHN renal
[5] = test system: MOLT-4 leukemia
[6] = test system: SF-268 CNS
[7] = test system: UO-31 renal
[8] = test system: NCI-H23 lung
[9] = test system: BT-549 breast
[10] = test system: COLO 205 colon
[11] = test system: SN12C renal
[12] = test system: HOP-62 NSCLC
[13] = test system: EKVX NSCLC
[14] = test system: HS 578T breast
[15] = test system: OVCAR-3 ovarian
[16] = test system: KM12 colon
[17] = test system: SK-OV-3 ovarian
[18] = test system: LOX IMVI melanoma
[19] = test system: HCT-116 colon
[20] = test system: MDA-MB-468 breast
[21] = test system: A549 NSCLC
[22] = test system: A498 renal
[23] = test system: HCT-15 colon
[24] = test system: MALME-3M melanoma
[25] = test system: UACC-62 melanoma
[26] = test system: U251 CNS
[27] = test system: MDA-MB-231 breast
[28] = test system: M14 melanoma
[29] = test system: CCRF-CEM leukemia
[30] = test system: SK-MEL-2 melanoma
[31] = test system: PC-3 prostate
[32] = test system: HCC-2998 colon
[33] = test system: HOP-92 NSCLC
[34] = test system: T-47D breast
[35] = test system: SNB-19 CNS
[36] = test system: SK-MEL-28 melanoma
[37] = test system: OVCAR-5 ovarian
[38] = test system: HT29 colon
[39] = test system: OVCAR-4 ovarian
[40] = test system: UACC-257 melanoma
[41] = test system: MCF7 breast
[42] = test system: MDA-MB-435
[43] = test system: RXF 393 renal
[44] = test system: SK-MEL-5 melanoma
[45] = test system: SF-539 CNS
[46] = test system: RPMI-8226 leukemia
[47] = test system: K-562 leukemia
[48] = test system: CAKI-1 renal
[49] = test system: NCI-H226 lung
[50] = test system: TK-10 renal
[51] = test system: HL-60(TB) leukemia
[52] = test system: NCI-H522 lung
[53] = test system: SF-295 CNS
[54] = test system: OVCAR-8 ovarian
[55] = test system: SNB-75 CNS
[56] = test system: SW-620 colon
[57] = test system: NCI-H460 lung
[58] = test system: IGROV1 ovarian

`COc1cc2c(cc1OC)CN(CCCCOc1cc(O)c3c(=O)cc(-c4ccccc4)oc3c1)CC2` gave a GI50 [1] of 1.85 µM, a TGI [1] of 4.67 µM and a GI50 [2] of 3.53 µM. The TGI [2] was 14.4 µM, the GI50 [3] was 32.1 µM and the TGI [3] was > 100 µM. The GI50 [4] was 8.74 µM, the TGI [4] was > 100 µM and the GI50 [5] was 3.09 µM. For the same compound, the TGI [5] was 19.6 µM, the GI50 [6] was 10.6 µM and the TGI [6] was > 100 µM. For the same compound, the GI50 [7] was 10.3 µM, the TGI [7] was 26.4 µM and the GI50 [8] was 24.5 µM. For the same compound, the TGI [8] was > 100 µM, the GI50 [9] was 8.53 µM and the TGI [9] was 22.9 µM. It also gave a GI50 [10] of 3.27 µM, a TGI [10] of 12.6 µM and a GI50 [11] of 6.25 µM. For the same compound, the TGI [11] was > 100 µM, the GI50 [12] was 22.2 µM and the TGI [12] was > 100 µM. For the same compound, the GI50 [13] was 71 µM, the TGI [13] was > 100 µM and the GI50 [14] was 11.6 µM. It also gave a TGI [14] of 52 µM, a GI50 [15] of 13.1 µM and a TGI [15] of 50.3 µM. It also gave a GI50 [16] of 10.3 µM, a TGI [16] of 36.9 µM and a GI50 [17] of 15.7 µM. It also gave a TGI [17] of 50.8 µM, a GI50 [18] of 4.51 µM and a TGI [18] of 15.3 µM. It also gave a GI50 [19] of 3.42 µM, a TGI [19] of 13.4 µM and a GI50 [20] of 2.07 µM. For the same compound, the TGI [20] was 14 µM, the GI50 [21] was 16.1 µM and the TGI [21] was > 100 µM. The GI50 [22] was 25.8 µM, the TGI [22] was 63.6 µM and the GI50 [23] was 6.7 µM. For the same compound, the TGI [23] was 31.8 µM, the GI50 [24] was 2.95 µM and the TGI [24] was 8.16 µM. The GI50 [25] was 2.67 µM, the TGI [25] was 7.92 µM and the GI50 [26] was 11.9 µM. The TGI [26] was 56.6 µM, the GI50 [27] was 10.6 µM and the TGI [27] was 44.8 µM. For the same compound, the GI50 [28] was 2.96 µM, the TGI [28] was 11.3 µM and the GI50 [29] was 5.17 µM. For the same compound, the TGI [29] was > 100 µM, the GI50 [30] was 14 µM and the TGI [30] was 40.1 µM. The GI50 [31] was 6.44 µM, the TGI [31] was > 100 µM and the GI50 [32] was 7.91 µM. The TGI [32] was 22.1 µM, the GI50 [33] was 8.92 µM and the TGI [33] was > 100 µM. For the same compound, the GI50 [34] was 9.01 µM, the TGI [34] was 65.9 µM and the GI50 [35] was 28.5 µM. The TGI [35] was > 100 µM, the GI50 [36] was 5.32 µM and the TGI [36] was 19.6 µM. For the same compound, the GI50 [37] was 40.7 µM, the TGI [37] was > 100 µM and the GI50 [38] was 3.34 µM. The TGI [38] was 12.4 µM, the GI50 [39] was 4.01 µM and the TGI [39] was 91.5 µM. For the same compound, the GI50 [40] was 5.28 µM, the TGI [40] was 18.6 µM and the GI50 [41] was 6.06 µM. For the same compound, the TGI [41] was 35.4 µM, the GI50 [42] was 13.2 µM and the TGI [42] was 41.9 µM. For the same compound, the GI50 [43] was 1.69 µM, the TGI [43] was 10.9 µM and the GI50 [44] was 11 µM. The TGI [44] was 23.5 µM, the GI50 [45] was 10.4 µM and the TGI [45] was 23.8 µM. It also gave a GI50 [46] of 4.29 µM, a TGI [46] of 24.3 µM and a GI50 [47] of 2.48 µM. For the same compound, the TGI [47] was 10.8 µM, the GI50 [48] was 13.1 µM and the TGI [48] was 97.5 µM. The GI50 [49] was 10.2 µM, the TGI [49] was > 100 µM and the GI50 [50] was 57.4 µM. For the same compound, the TGI [50] was > 100 µM, the GI50 [51] was 2.32 µM and the TGI [51] was 13.8 µM. The GI50 [52] was 12.5 µM, the TGI [52] was 29.4 µM and the GI50 [53] was 10.7 µM. For the same compound, the TGI [53] was 25 µM, the GI50 [54] was 18.9 µM and the TGI [54] was > 100 µM. For the same compound, the GI50 [55] was 4 µM, the TGI [55] was 45.4 µM and the GI50 [56] was 11.3 µM. It also gave a TGI [56] of 35.4 µM, a GI50 [57] of 7.07 µM and a TGI [57] of 41.5 µM. For the same compound, the GI50 [58] was 26.4 µM and the TGI [58] was > 100 µM.
